In patent publication US8119647B2, “Fused pyrimidineone compounds as TRPV3 modulators” (Glenmark Pharmaceuticals S.A., priority 2008, dated 2012):
Where two headings read alike, the source gives them in different places.

Target: T1, Human TRPV3 (Homo sapiens, UniProt Q8NET8)
T1 construct: expressed in transfected cells; host or cells: CHO cells (G-418 selection)
T1 sequence (Q8NET8 1-790): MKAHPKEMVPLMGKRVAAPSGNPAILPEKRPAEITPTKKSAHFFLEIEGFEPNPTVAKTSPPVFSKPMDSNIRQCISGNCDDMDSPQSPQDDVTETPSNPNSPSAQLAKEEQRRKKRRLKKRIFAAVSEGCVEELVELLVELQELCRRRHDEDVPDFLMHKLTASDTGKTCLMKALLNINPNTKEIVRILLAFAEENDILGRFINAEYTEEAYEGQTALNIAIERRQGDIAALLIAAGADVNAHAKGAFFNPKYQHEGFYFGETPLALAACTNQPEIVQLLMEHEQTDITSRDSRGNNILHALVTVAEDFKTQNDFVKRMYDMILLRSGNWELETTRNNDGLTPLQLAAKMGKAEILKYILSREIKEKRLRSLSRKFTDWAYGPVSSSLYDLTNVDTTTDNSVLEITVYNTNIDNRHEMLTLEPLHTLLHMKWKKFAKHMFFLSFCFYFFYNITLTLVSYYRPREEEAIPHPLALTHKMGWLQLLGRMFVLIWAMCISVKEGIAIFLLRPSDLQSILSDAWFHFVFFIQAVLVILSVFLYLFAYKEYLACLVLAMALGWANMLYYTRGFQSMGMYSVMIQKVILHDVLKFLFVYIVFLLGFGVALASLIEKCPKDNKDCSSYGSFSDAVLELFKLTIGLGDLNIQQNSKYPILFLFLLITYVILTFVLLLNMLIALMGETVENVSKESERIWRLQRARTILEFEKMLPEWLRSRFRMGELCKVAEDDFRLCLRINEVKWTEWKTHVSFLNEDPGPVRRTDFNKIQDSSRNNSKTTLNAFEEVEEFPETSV
Test: Screening for TRPV3 antagonist using the 45Calcium uptake assay (inhibition of 2-APB induced cellular uptake of radioactive calcium)
Format: cell-based
Settings: for inhibition at 1 µM / Percentage inhibition at 1.0 μM: 1.0 μM test compound; for inhibition at 1 µM: read-out: Percentage inhibition at 1.0 μM; for inhibition at 10 µM: read-out: Percentage inhibition at 10.0 μM; for IC50: class symbols
From the text: The illustrative examples of the present invention are screened for TRPV3 activity according to a modified procedure described in Tóth, A., Kedei, N., Wang, Y. and Blumberg, P. M. Life Sciences (2003), 73, 487-498. The screening of the compounds can be carried out by other methods and procedures known to a person skilled in the art. Such screening methods may be found in (a) Hu, H.-Z. et al. J. Biol. Chem. (2004), 279, 35741-35747; (b) Smith, G. D. et al. Nature (2002), 418, 186-190; (c) Peier, A. M. et al. Science (2002), 296, 2046-2049.
Screening for TRPV3 Antagonist Using the ^45Calcium Uptake Assay:
The inhibition of TRPV3 receptor activation was followed as inhibition of 2-aminoethoxydiphenylborate (2-APB) induced cellular uptake of radioactive calcium. Test compounds were dissolved in dimethyl sulfoxide (DMSO) to prepare 20 mM stock solution and then diluted using plain medium with DMEM/F-12 containing 1.8 mM CaCl2 to get desired concentration. Final concentration of DMSO in the reaction was 0.5% (v/v). Human TRPV3 expressing CHO cells were grown in DMEM/F-12 medium with 10% FBS, 1% penicillin-streptomycin solution, 400 μg/ml of G-418. Cells were seeded 24 h prior to the assay in 96 well plates so as to get ˜50,000 cells per well on the day of experiment. Cells were treated with test compounds for 10 minutes followed by addition of 2-APB at a final concentration of 500 μM and 5 μCi/ml ^45Ca^+2 for 4 minutes. Cells were washed and lysed using buffer containing 1% Triton X-100, 0.1% deoxycholate and 0.1% SDS. Radioactivity in the lysate was measured in Packardt Top count after addition of liquid scintillant. Concentration response curves were plotted as a % of maximal response obtained in the absence of test antagonist. IC50 value was calculated from concentration response curve by nonlinear regression analysis using GraphPad PRISM software.
Percentage inhibition at concentrations of 1.0 μM and 10.0 μM are given in the table along with IC50 (nM) values for selected examples.

[1] = human TRPV3 expressing CHO cells, 2-APB 500 μM
[2] = 10.0 μM test compound, human TRPV3 expressing CHO cells, 2-APB 500 μM

| inhibition at 1 µM [1] [%] | inhibition at 10 µM [2] [%] | Percentage inhibition at 10.0 μM [%] | Compound | Percentage inhibition at 1.0 μM [1] [%] | Percentage inhibition at 10.0 μM [2] [%] | IC50 [1] [nM] |
| --- | --- | --- | --- | --- | --- | --- |
| 30.7 | 77.5 | – | COc1cccc(/C=C/c2nc3sccn3c(=O)c2-c2ccc(OCC(F)(F)F)cc2)c1OCC1CC1 [Example 45, 7-[(E)-2-(2-Cyclopropylmethoxy-3-methoxyphenyl)-1-ethenyl]-6-(4-(2,2,2-trifluoroethoxy)phenyl]-5H-[1,3]thiazolo[3,2-a]pyrimidin-5-one] | – | – | – |
| – | – | 81.57 | COc1cccc(/C=C/c2nc3sc4ccccc4n3c(=O)c2-c2ccc(C#N)cc2)c1OCc1ccccn1 [Example 90] | 51.24 | – | – |
| 57.4 | 70.3 | – | COc1cccc(/C=C/c2nc3scc(C(F)(F)F)n3c(=O)c2-c2ccc(C#N)cc2)c1OCC(C)(C)C [Example 82, 4-{7-[(E)-2-(3-Methoxy-2-neopentyloxyphenyl)-1-ethenyl]-5-oxo-3-(trifluoromethyl)-5H-[1,3]thiazolo[3,2-a]pyrimidin-6-yl}benzonitrile] | – | – | – |
| 23 | 30 | – | COc1cccc(/C=C/c2nc3n(C)c4ccccc4n3c(=O)c2-c2ccc(OC(F)(F)F)cc2)c1OCC1CC1 [Example 98, 2-[(E)-2-(2-Cyclopropylmethoxy-3-methoxyphenyl)vinyl]-3-(4-trifluoromethoxyphenyl)-10-methylpyrimido[1,2-a]benzimidazol-4(10H)-one] | – | – | – |
| 51.5 | 91.5 | – | COc1cccc(/C=C/c2nc3sccn3c(=O)c2-c2ccc(OC(F)(F)F)cc2)c1O [Example 69, 7-[(E)-2-(2-Hydroxy-3-methoxyphenyl)-1-ethenyl]-6-[4-(trifluoromethoxy)phenyl]-5H-[1,3]thiazolo[3,2-a]pyrimidin-5-one] | – | – | – |
| 15.4 | 22 | – | N#CCCCOc1cccc(/C=C/c2nc3sccn3c(=O)c2-c2ccc(OC(F)(F)F)cc2)c1OCC1CC1 [Example 65, 7-{(E)-2-[2-(Cyclopropylmethoxy)-3-(3-cyanopropoxy)phenyl]-1-ethenyl}-6-(4-trifluoromethoxyphenyl)-5H-[1,3]thiazolo[3,2-a]pyrimidin-5-one] | – | – | – |
| 24.7 | 44 | – | COc1cccc(/C=C/c2nc3sc(C)c(C)n3c(=O)c2-c2ccc(OC(F)(F)F)cc2)c1OCC1CC1 [Example 77, 7-[(E)-2-(2-Cyclopropylmethoxy-3-methoxyphenyl)-1-ethenyl]-2,3-dimethyl-6-[4-(trifluoromethoxy)phenyl]-5H-[1,3]thiazolo[3,2-a]pyrimidin-5-one] | – | – | – |

Further lines, the compound ahead of its results:

| Compound | inhibition at 1 µM [1] [%] | inhibition at 10 µM [2] [%] | Percentage inhibition at 10.0 μM [%] | Percentage inhibition at 1.0 μM [1] [%] | Percentage inhibition at 10.0 μM [2] [%] | IC50 [1] [nM] |
| --- | --- | --- | --- | --- | --- | --- |
| COc1cccc(/C=C/c2nc3sccn3c(=O)c2-c2ccc(C#N)cc2)c1OC1CCCC1 [Example 18, 4-{7-[(E)-2-(2-Cyclopentyloxy-3-methoxy)phenyl-1-ethenyl]-5-oxo-5H-[1,3]thiazolo-[3,2-a]pyrimidin-6-yl}benzonitrile] | – | – | – | 85.0 | 94.2 | < 250 |
| COc1cccc(/C=C/c2nc3sc4ccccc4n3c(=O)c2-c2ccc(C#N)cc2)c1OCCC(C)C [Example 88, 4-{2-[(E)-2-[2-(3-Methylbutoxy-3-methoxy]phenyl}-1-ethenyl]-4-oxo-4H-benzo[4,5]-[1,3]thiazolo-[3,2]pyrimidin-3-yl)benzonitrile] | – | – | – | 32.87 | 51.88 | – |
| COc1cccc(/C=C/c2nc3sccn3c(=O)c2-c2ccc(N(C)C)cc2)c1OCC(C)C [Example 41, 6-(4-Dimethylaminophenyl)-7-[(E)-2-(2-isobutoxy-3-methoxyphenyl)-1-ethenyl]-5H-[1,3]thiazolo[3,2-a]pyrimidin-5-one] | 75.5 | 84.5 | – | – | – | 250 to 500 |
| COc1cccc(/C=C/c2nc3sccn3c(=O)c2-c2ccc(C#N)cc2)c1OCc1cccc(F)c1 [Example 20] | – | – | – | 56.5 | 79.3 | – |
| COc1cccc(/C=C/c2nc3sc4ccccc4n3c(=O)c2-c2ccc(C#N)cc2)c1OCC1CC1 [Example 86] | – | – | – | 45.5 | 75.6 | – |
